The data set concerns mouse salivary gland organoids.

The values below come from US20260234555A1 (priority 2022, published 2026).

Structures are written as SMILES.

Consider `CC(=O)OCC[N+](C)(C)C.[Cl-]` [acetylcholine, Acetylcholine chloride], for which the “effect on the morphology and growth of the organoids” value is reported as “no effect”.
Turning to `CN(C)C(=O)Oc1cccc([N+](C)(C)C)c1` [neostigmine, Neostigmine bromide], the “changes in the morphology and growth of the organoids” value was “no significant changes”.
